Series [1] in a line: logP determination by HPLC (EEC Directive 79/831 Annexe V.A8). Type of series: physicochemical. As to conditions: gradient method, acetonitrile/0.1% aqueous phosphoric acid. How it is done: The logP values were determined in accordance with EEC Directive 79/831 Annexe V.A8 by HPLC (gradient method, acetonitrile/0.1% aqueous phosphoric acid).
Another series deals with Phytophthora infestans. It is filed as in vivo. The note with it: tomato, protective; application rate 50 g/ha; evaluation three days after inoculation; 100% means no infection.

Each structure is given as a SMILES string.

For the molecule `Cc1c(Br)nc(Br)n1S(=O)(=O)c1cccnc1Cl` [Example 2], the melting point lay within 154 to 158 °C. Further, the chromatographic logP in series [1] is 2.97. `Cc1c(Br)nc(Br)n1S(=O)(=O)c1cccnc1Cl` [drawing 19] gave an Efficacy in % with Phytophthora infestans of 94%. Molecule `Cc1c(Cl)nc(Br)n1S(=O)(=O)c1cccnc1Cl` [Example 1, 3-[(2-bromo-4-chloro-5-methyl-1H-imidazol-1-yl)-sulfonyl]-2-chloropyridine] showed a melting point of 144 to 146 °C. In series [1], this molecule yielded a chromatographic logP of 2.9.

For `Cc1c(Cl)nc(Br)n1S(=O)(=O)c1cccnc1Cl` [drawing 18], in the series with Phytophthora infestans, the Efficacy in % was 94%.

As a reminder, the chromatographic logP is a lipophilicity value derived from retention on a column. A low value points to lower lipophilicity. In general, melting point refers to the temperature of the solid-liquid transition.

Values taken from US20040242662A1 (priority 2000, published 2004).
